Measurements reported in patent publication US20250114338A1, “TETRAHYDRO-PYRIDO[3,4-b]INDOLE ESTROGEN RECEPTOR MODULATORS AND USES THEREOF” (Genentech, Inc., priority 2014, published 2025).

Legend:
[1] = target: estrogen receptor alpha (ESR1) in MCF7 breast cancer cells (Homo sapiens (Human), UniProt P03372); experiment: Breast Cancer Cell ERa High Content Fluorescence Imaging Degradation Assay (Example 901); type: cell-based; settings: 4 hours, plateau of maximal effect, 0% = DMSO, 100% change = 5 nM Fulvestrant
Chain of estrogen receptor alpha (ESR1) in MCF7 breast cancer cells (P03372 whole entry): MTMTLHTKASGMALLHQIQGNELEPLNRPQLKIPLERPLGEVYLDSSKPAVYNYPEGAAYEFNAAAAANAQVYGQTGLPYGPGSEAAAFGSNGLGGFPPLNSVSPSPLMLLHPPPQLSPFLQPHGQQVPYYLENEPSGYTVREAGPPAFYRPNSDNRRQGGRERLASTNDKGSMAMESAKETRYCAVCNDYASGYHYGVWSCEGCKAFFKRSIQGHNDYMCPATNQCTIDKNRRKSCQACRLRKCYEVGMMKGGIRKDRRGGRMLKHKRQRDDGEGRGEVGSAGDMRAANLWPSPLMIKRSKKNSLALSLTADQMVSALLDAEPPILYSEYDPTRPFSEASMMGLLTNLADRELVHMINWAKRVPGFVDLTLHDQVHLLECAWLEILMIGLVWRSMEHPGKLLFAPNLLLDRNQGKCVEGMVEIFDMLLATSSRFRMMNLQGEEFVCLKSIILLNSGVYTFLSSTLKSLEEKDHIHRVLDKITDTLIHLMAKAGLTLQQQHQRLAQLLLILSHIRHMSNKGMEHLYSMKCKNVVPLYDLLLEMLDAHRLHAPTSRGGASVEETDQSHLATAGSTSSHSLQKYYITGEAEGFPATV
Experimental: Where more than one name is associated with a Formula I compound or intermediate, the chemical structure shall define the compound. […] Cell plates were incubated at 37° C., for 4 hours. Fixation and permeabilization were carried out using a Biotek EL406 plate washer and dispenser as follows. […] Well contents were aspirated and washed 3 times with 100 μL/well of PBS. […] Samples were incubated for 2 hours at room temperature. […] Samples were incubated for 2 hours at room temperature. […] Quantitative fluorescence imaging of ESR1 was carried out using a Cellomics Arrayscan V (Thermo). […] Channel 1 (DNA stain) was used to define the nuclear region (Circ). […] The “Robust Fit” method was used to define the inflexion point of curve (EC50) and the plateau of the maximal effect (Sinf).

ER-alpha MCF7 = ER-alpha MCF7 HCS EC50; stated as measured by in vitro cell proliferation assays of Examples 902 and 903; type: cell-based; settings: Homo sapiens, MCF7, MCF7 cells; Table 2
Summary of the method: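 MCF7 cells seeded 1000-2000 cells/well for 16 h, then treated with nine-point 1:2 DMSO dilution series in quadruplicate at 37 °C, 5% CO2 for 4 days. Viable cells quantified by CellTiter-Glo ATP luminescence; EC50 calculated. Controls: fulvestrant at final 100 nM, DMSO 0.2% v/v.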

| SMILES | ER-alpha MCF7 HCS Sinf (%) [1] [%] | EC50 (ER-alpha MCF7) [nM] |
| --- | --- | --- |
| C[C@@H]1Cc2c([nH]c3ccccc23)[C@@H](c2c(F)cc(OCCN3CC(CF)C3)cc2F)N1C(=O)C(C)(C)F [Example 104, 1-((1R,3R)-1-(2,6-difluoro-4-(2-(3-(fluoromethyl)azetidin-1-yl)ethoxy)phenyl)-3-methyl-3,4-dihydro-1H-pyrido[3,4-b]indol-2(9H)-yl)-2-fluoro-2-methylpropan-1-one] | −95.4 | – |
| C[C@@H]1Cc2c([nH]c3ccccc23)[C@@H](c2c(F)cc(OCCN3CC(C(F)F)C3)cc2F)N1CC(C)(C)F [Example 105, (1R,3R)-1-(4-(2-(3-(difluoromethyl)azetidin-1-yl)ethoxy)-2,6-difluorophenyl)-2-(2-fluoro-2-methylpropyl)-3-methyl-2,3,4,9-tetrahydro-1H-pyrido[3,4-b]indole] | −94 | – |
| C[C@@H]1Cc2c([nH]c3ccccc23)[C@@H](c2c(F)cc(OC3CN(CCCCl)C3)cc2F)N1CC(C)(C)F [Example 106, (1R,3R)-1-(4-((1-(3-chloropropyl)azetidin-3-yl)oxy)-2,6-difluorophenyl)-2-(2-fluoro-2-methylpropyl)-3-methyl-2,3,4,9-tetrahydro-1H-pyrido[3,4-b]indole] | −90.4 | – |
| CCCN1CC(Oc2cc(F)c([C@@H]3c4[nH]c5ccccc5c4C[C@@H](C)N3CC(C)(C)F)c(F)c2)C1 [Example 107, (1R,3R)-1-(2,6-difluoro-4-((1-propylazetidin-3-yl)oxy)phenyl)-2-(2-fluoro-2-methylpropyl)-3-methyl-2,3,4,9-tetrahydro-1H-pyrido[3,4-b]indole] | −97.6 | – |
| C[C@@H]1Cc2c([nH]c3ccccc23)[C@@H](c2c(F)cc(OC[C@H](C)N3CC[C@@H](CF)C3)cc2F)N1CC(C)(C)F [Example 108, (1R,3R)-1-(2,6-difluoro-4-((S)-2-((R)-3-(fluoromethyl)pyrrolidin-1-yl)propoxy)phenyl)-2-(2-fluoro-2-methylpropyl)-3-methyl-2,3,4,9-tetrahydro-1H-pyrido[3,4-b]indole] | −79.3 | – |
| C[C@@H]1Cc2c([nH]c3ccccc23)[C@@H](c2c(F)cc(OCCN3CC[C@@H](CF)C3)cc2F)N1CC(C)(C)F [Example 109, (1R,3R)-1-(2,6-difluoro-4-(2-((R)-3-(fluoromethyl)pyrrolidin-1-yl)ethoxy)phenyl)-2-(2-fluoro-2-methylpropyl)-3-methyl-2,3,4,9-tetrahydro-1H-pyrido[3,4-b]indole] | −86.5 | – |
| C[C@@H]1Cc2c([nH]c3ccccc23)[C@@H](c2c(F)cc(OCCN3CCCC3)cc2F)N1CC(C)(C)F [Example 117, (1R,3R)-1-(2,6-difluoro-4-(2-(pyrrolidin-1-yl)ethoxy)phenyl)-2-(2-fluoro-2-methylpropyl)-3-methyl-2,3,4,9-tetrahydro-1H-pyrido[3,4-b]indole] | −71.7 | – |
| C[C@@H]1Cc2c([nH]c3ccccc23)[C@@H](c2c(F)cc(OCCN3CCCCC3)cc2F)N1CC(C)(C)F [Example 118, (1R,3R)-1-(2,6-difluoro-4-(2-(piperidin-1-yl)ethoxy)phenyl)-2-(2-fluoro-2-methylpropyl)-3-methyl-2,3,4,9-tetrahydro-1H-pyrido[3,4-b]indole] | −72.2 | – |
| C[C@@H]1Cc2c([nH]c3ccc(F)cc23)[C@@H](c2c(F)cc(NC3CN(CCCF)C3)cc2F)N1C[C@](C)(F)CO [Example 433, (S)-3-((1R,3R)-1-(2,6-difluoro-4-((1-(3-fluoropropyl)azetidin-3-yl)amino)phenyl)-6-fluoro-3-methyl-1,3,4,9-tetrahydro-2H-pyrido[3,4-b]indol-2-yl)-2-fluoro-2-methylpropan-1-ol] | – | 0.0209 |
| C[C@H]1Cc2c([nH]c3ccc(F)cc23)[C@@H](c2c(F)cc(NC3CN(CCCF)C3)cc2F)N1C[C@@](C)(F)CO [Example 434, (R)-3-((1R,3S)-1-(2,6-difluoro-4-((1-(3-fluoropropyl)azetidin-3-yl)amino)phenyl)-6-fluoro-3-methyl-1,3,4,9-tetrahydro-2H-pyrido[3,4-b]indol-2-yl)-2-fluoro-2-methylpropan-1-ol] | – | 0.706 |
